Experimental data: US20230227838A1, “ENHANCED CELL SURVIVAL AGAINST BIOTIC AND ABIOTIC STRESSES THROUGH SALICYLICK ACID-INDUCED NPR1 CONDENSATES” (priority 2020, published 2023)

Columns and labels:
CUL3 = test: Pull-down of Myc-CUL3 with GST-fused NPR1 or variants co-expressed in E. coli; format: binding, Arabidopsis thaliana
Source text: Plasmid construction and E. coli-based ubiquitination: The coding sequences for all Arabidopsis genes were amplified from cDNA. Point mutations of AtNPR1 (AT1G64280) were generated using the QuikChange II site-directed mutagenesis kit (Agilent). Overlap PCR was used to generate the deletion/truncation mutations of AtCUL3A (AT1G26830) and AtNPR1. The WT and mutated coding sequences for all genes and gene fusions were sub-cloned into the pDONR207 gateway donor vector and confirmed by sequencing. The obtained entry vectors were recombined into either plant or E. coli destination vectors without or with an N- or C-terminal tag. For in planta expression, genes were recombined into the plant binary vectors pK7FWG2, pSITE-4NB and pLN462 to generate C-terminal eGFP, mCherry and HA fusions, respectively; into pK7WGF2, pEG201, pEG202, pEG203 and pEG204 to generate N-terminal eGFP, HA, FLAG, Myc and V5 fusions, respectively. […] For bimolecular fluorescence complementation (BiFC), entry vectors carrying the coding sequences of genes and their mutant variants were recombined into the pSITE-cEYFP-N1 binary vector for C-terminal fusion with the cYFP half (YC), or into the pSITE-nEYFP-C1 for N-terminal fusion with the nYFP half (YN). […]

ETI activated by RPP1 = test: ATR1/RPP1-induced cell death (conductivity assay); format: in vivo, Nicotiana benthamiana; conditions: SA/NPR1-mediated; 1 mM SA
Source text: Chemical treatment, pathogen infection and cell death assays. […] At 2 days, the bacterial colonies were scored.
VIGS assay. The silencing of NbNPR1 (NbNPR1-RNAi) and NbCUL3 (NbCUL3-RNAi) was done using VIGS assay performed as previously described. Ten-day-old WT N. benthamiana plants were inoculated with Agrobacteria (GV3101) carrying the helper plasmid pTRV1-LIC mixed at 1:1 with a strain carrying either pTRV2-LIC (empty vector control, E.V.), pTRV2-NbPDS (positive control), pTRV2-NbNPR1 or pTRV2-NbCUL3 vectors. Ten days later, gene silencing in the mock and SA-treated plants was verified in the systemic leaves by qPCR using gene-specific and reference gene (eIF4a) primers (Table 6). NbNPR1 silencing was additionally confirmed by analysis of NbPR1 expression. The silenced leaves were used in the standard transient expression assay by agroinfiltration using strains carrying the indicated test genes; and gene expression was assayed at 2 dpi.

Compound	interaction with CUL3 when co-expressed in E. coli (CUL3)	ETI activated by RPP1 (effector ATR1) (ETI activated by RPP1)
NPR1: wild-type Arabidopsis thaliana NPR1 protein, positive regulator of systemic acquired resistance	could be easily observed	
O=C(O)c1ccccc1O [SA, salicylic acid]		inhibition
